The text below walks through data of the OPERA property sets (Mansouri et al. 2018).

The structures appear in SMILES notation. In brackets after ≈: the same amount, converted by molar mass.

Conditions in the first data set: not given
The term logP denotes the decadic logarithm of the partition coefficient of the neutral form, usually between octanol and water. A high value points to a more lipophilic compound. For `Cc1cn(C2CC(O)C(CN)O2)c(=O)[nH]c1=O` (centres undefined), the logP was -2.05.

Consider `O=c1[nH]c2ccccc2n1CCCN1CCC(n2c(=O)[nH]c3cc(Cl)ccc32)CC1`, for which the logP is 3.9.

`O=C(Nc1ccccc1)n1cc(F)c(=O)[nH]c1=O` came in with a lipophilicity (logP) of 1.5.

As to `CC1CCC(=O)N1C` (centres undefined), the lipophilicity (logP) was -0.07.

As usually defined, the solubility is how much of the substance goes into solution per volume. `O=P1(N(CCCl)CCCl)NCCCO1` (centres undefined) displayed a solubility of 153 mM (≈ 40000 µg/mL). That is a millimolar value.

In the case of `Brc1ccccc1-c1ccccc1`, the log partition coefficient (logP) worked out at 4.59.

`Clc1cc2c(Cl)ccc(Cl)c2c(Cl)c1Cl` registered a lipophilicity (logP) of 6.8.

Take `COc1ccc([N+](=O)[O-])cc1NC(C)=O`: the logP was 1.6.

For `CC(C)c1ccc(Br)c(C(C)C)c1NC(=O)CN(CC(=O)O)CC(=O)O`, the logP stood at 0.2.

Molecule `CC(C)NC1=NC(=O)C(=Cc2ccc([N+](=O)[O-])o2)S1` displayed a log partition coefficient (logP) of 1.29.

Turning to `O=C(OCc1ccccc1)c1cccnc1`, the logP worked out at 2.4.

For `Clc1ccc(Nc2cc3nc4ccccc4n(-c4ccc(Cl)cc4)c-3cc2=NCC2CCNCC2)cc1`, the logP was 6.44.

`CCCCCCCOC(=O)c1ccc(N)cc1` showed a logP of 4.5.

For the molecule `Clc1cccc(O[Si]23OCCN(CCO2)CCO3)c1`, the log partition coefficient (logP) came out at 0.46.

Regarding `CC(=O)OCn1cc2c(=O)n(COC(C)=O)cnc2n1`, the logP was -0.2.

Consider `CCCCc1oc(C)cc(=O)c1O`, for which the logP worked out at 1.92.

In turn, `Clc1c(Cl)c(Cl)c2c(Cl)c(Cl)c(Cl)c(Cl)c2c1Cl` returned a logP of 8.5 and a solubility of 1.98e-07 mM (≈ 8e-05 µg/mL).

As to `CN(C)C(=O)Nc1ccc(Oc2ccc(Cl)cc2)cc1`, the logP is 3.7.

Molecule `CCOC(=O)CNC(=O)c1cn(CC)c2nc(C)ccc2c1=O` showed a logP of 2.07.

For `O=C([O-])c1ccccc1.[Na+]`, the solubility amounted to 3860 mM.

With `Cc1nc2c(N)ncnc2n1C1OC(CO)CC1F` (centres undefined), the lipophilicity (logP) amounted to 0.1.

In turn, `CCOC(=O)[C@@H](N)Cc1ccc(O)c(O)c1` showed a logP of 0.28.

With `NS(=O)(=O)c1nn2c(=Nc3cccc(Cl)c3)snc2s1`, the logP was determined as 3.5.

The same data set, now with this note: 20 °C.
`O=C1OC2(c3ccc(O)cc3Oc3cc(O)ccc32)c2ccccc21` registered a solubility of 0.15 mM (≈ 50 µg/mL).

Still in this data set, the particulars now being: 22 °C.
`CCOC(=O)CC(SP(=O)(OC)OC)C(=O)OCC` (centres undefined) yielded a solubility of 23.9 mM (≈ 7500 µg/mL).

The same data set, now with this note: 23.0 °C.
As for `CCC(=O)CO`, the log10 OH rate constant (cm³/molecule/s) is -11.1.

In the case of `C=C(F)F`, the log10 OH rate constant (cm³/molecule/s) was -11.7.

Consider `CC(=O)CC(C)(C)O`, for which the log10 OH rate constant (cm³/molecule/s) was -11.4.

Turning to `CCCCOCCOCCO`, the log10 OH rate constant (cm³/molecule/s) is -10.1.

With `CC(C)CC(C)(C)O`, the log10 OH rate constant (cm³/molecule/s) was -10.9.

In the case of `CC(=O)CCC=C(C)C`, the log10 OH rate constant (cm³/molecule/s) is -9.8.

The same data set, now with this note: 24 °C.
Molecule `N#CSCSc1nc2ccccc2s1` gave a solubility of 0.524 mM (≈ 125 µg/mL).

The data set is the same for the next values; noted with them: 24.0 °C.
For the molecule `C[Si]1(C)O[Si](C)(C)O[Si](C)(C)O1`, the log10 OH rate constant (cm³/molecule/s) is -12.3.

Staying with this data set, now noted: 25 °C.
With `Nc1ncc2ncn(COCCO)c2n1`, the solubility was 83.7 mM (≈ 17500 µg/mL).

In the case of `CCCCC(CC)COC(=O)c1ccccc1C(=O)OCC(CC)CCCC` (centres undefined), the solubility came to 0.000108 mM (≈ 0.042 µg/mL).

`CCC(=O)OC` displayed a solubility of 708 mM (≈ 62400 µg/mL).

`CC1CO1` (centres undefined) showed a solubility of 10200 mM (≈ 590000 µg/mL).

Consider `N#CCC#N`, for which the solubility came to 2010 mM (≈ 133000 µg/mL). Compared with the last molecule, the solubility is about 5.1-fold lower.

For the molecule `C#Cc1ccccc1`, the solubility was 4.46 mM (≈ 456 µg/mL). This solubility lies about 450-fold lower than the previous one.

As to `COc1c(O)c(Cl)c(Cl)c(Cl)c1Cl`, the solubility turned out to be 0.016 mM (≈ 4.2 µg/mL). Compared with the last molecule, the solubility is about 280-fold lower.

`CCC(Cl)CC` gave a solubility of 2.34 mM (≈ 249 µg/mL). Compared with the last molecule, the solubility is about 150-fold higher.

Turning to `CCCCCC1CCCC1`, the solubility came out at 0.00082 mM (≈ 0.115 µg/mL).

`Clc1cc2ccccc2cc1Cl` returned a solubility of 0.00044 mM (≈ 0.0867 µg/mL).

`COCCOC(=O)c1ccccc1C(=O)OCCOC`: the solubility turned out to be 30.1 mM (≈ 8500 µg/mL).

On to `ClC1=C(Cl)C2(Cl)C3CCC4C(CCC3C1(Cl)C2(Cl)Cl)C1(Cl)C(Cl)=C(Cl)C4(Cl)C1(Cl)Cl` (centres undefined), for which the solubility was 6.73e-11 mM (≈ 4.4e-08 µg/mL).

`O=CC=Cc1ccccc1`: the solubility turned out to be 10.7 mM (≈ 1420 µg/mL). This counts as millimolar.

`CC(=O)OCC(=O)[C@@]1(O)CC[C@H]2[C@@H]3CCC4=CC(=O)C=C[C@]4(C)[C@H]3[C@@H](O)C[C@@]21C` had a solubility of 0.0427 mM (≈ 17.2 µg/mL).

For `Nc1ccc2cc3ccccc3cc2c1`, the solubility amounted to 0.00673 mM (≈ 1.3 µg/mL).

For the molecule `CC(C)(C)c1ccc(O)c(O)c1`, the solubility was determined as 12 mM (≈ 2000 µg/mL). This solubility is about 1800-fold higher than that of the molecule before.

As for `CCCc1ccc(O)cc1`, the solubility came out at 9.38 mM (≈ 1280 µg/mL). The solubility values of the last two molecules are within 1.5-fold of each other.

Molecule `O=C(O)c1ccc(C(=O)O)c(C(=O)O)c1` yielded a solubility of 99.9 mM (≈ 21000 µg/mL). Against the preceding molecule, the solubility is about 11-fold higher.

The same data set, now with this note: 25.0 °C.
Turning to `CCCCCCCl`, the log10 OH rate constant (cm³/molecule/s) is -11.4.

Take `CCCC(=O)O`: the log10 OH rate constant (cm³/molecule/s) was -11.6.

Consider `C1CC2CCCC2C1` (centres undefined), for which the log10 OH rate constant (cm³/molecule/s) was -11.

Turning to `FC(F)OC(Cl)C(F)(F)F` (centres undefined), the log10 OH rate constant (cm³/molecule/s) is -13.8.

In the case of `CC(F)(F)CC(F)(F)F`, the log10 OH rate constant (cm³/molecule/s) is -14.1.

On to `O=CC(F)(Cl)Cl`, for which the log10 OH rate constant (cm³/molecule/s) is -11.9.

In the case of `CCNc1nc(Cl)nc(NCC)n1`, the log10 OH rate constant (cm³/molecule/s) was -11.

For the molecule `CC(C)(C)N`, the log10 OH rate constant (cm³/molecule/s) is -10.9.

`CC(C)c1ccc(NC(=O)N(C)C)cc1`: the log10 OH rate constant (cm³/molecule/s) was -10.9.

`FC(F)(F)CBr`: the log10 OH rate constant (cm³/molecule/s) is -13.7.

For `CCCCOCC=O`, the log10 OH rate constant (cm³/molecule/s) is -10.7.

The same data set, now with this note: pH 7.0.
The term logD denotes lipophilicity at a set pH, counting ionised and neutral species. A low value points to a more hydrophilic compound. `Cc1nn(-c2cc(NS(C)(=O)=O)c(Cl)cc2Cl)c(=O)n1C(F)F`: the log distribution coefficient (logD) stood at 0.99.
